Laboratory results: US20210315893A1 (Galapagos NV, priority 2017, published 2021)

Experiments:
[1] = biological target: T1, human GPCR sphingosine 1-phosphate receptor 2 (Homo sapiens, UniProt O95136); assay: S1PR2 antagonist Ca2+ flux assay; assay type: cell-based; conditions: antagonist mode, CHO-S1PR2 cells, S1P at EC80, Ca2+ fluorescence; read-out: S1P2 EC50 (nM), S1P2 antagonist EC50
T1 construct: host or cells: CHO
Procedure, shortened: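 CHO cells stably expressing human S1PR2, serum-starved 1 h, Fluo8-loaded; compound-evoked Ca2+ fluorescence read 3 min (agonist mode), then after 15 min S1P at EC80 added and read 3 min (antagonist mode). Max/baseline fluorescence ratios normalised to vehicle and S1P EC100 or EC50 controls; EC50 derived.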

[2] = tested on: HFL-1 cells; assay: IL-8 production assay (S1P induced IL-8); assay type: cell-based; conditions: Homo sapiens, HFL1; S1P (1 μM) induced IL-8 in HFL-1 cells, starvation medium without HSA; read-out: IL8 EC50
Procedure, shortened: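 HFL-1 human fetal lung fibroblasts were starved in F12K/1% FBS, then given compound for 1 h (10-point, 1/3 dilution, 30 μM top, 0.3% DMSO final). S1P was added at 1 μM final for 16–24 h at 37 °C, and secreted IL-8 in supernatant quantified by ELISA.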

[3] = tested on: HFL-1 cells; assay: IL8 assay in the presence of Human Serum Albumin; conditions: HFL1, read-out: HSA IL8 EC50
[4] = biological target: T2, human GPCR sphingosine 1-phosphate receptor 5 (Homo sapiens, UniProt Q9H228); assay: S1PR5 selectivity Ca2+ flux assay (antagonist readout); assay type: cell-based; conditions: CHO cells overexpressing human S1PR5 and Gq, agonist at EC80 (20 nM), read-out: S1P5 EC50 (nM), S1P5 antagonist EC50
T2 construct: host or cells: CHO
T2 sequence (Q9H228 whole entry): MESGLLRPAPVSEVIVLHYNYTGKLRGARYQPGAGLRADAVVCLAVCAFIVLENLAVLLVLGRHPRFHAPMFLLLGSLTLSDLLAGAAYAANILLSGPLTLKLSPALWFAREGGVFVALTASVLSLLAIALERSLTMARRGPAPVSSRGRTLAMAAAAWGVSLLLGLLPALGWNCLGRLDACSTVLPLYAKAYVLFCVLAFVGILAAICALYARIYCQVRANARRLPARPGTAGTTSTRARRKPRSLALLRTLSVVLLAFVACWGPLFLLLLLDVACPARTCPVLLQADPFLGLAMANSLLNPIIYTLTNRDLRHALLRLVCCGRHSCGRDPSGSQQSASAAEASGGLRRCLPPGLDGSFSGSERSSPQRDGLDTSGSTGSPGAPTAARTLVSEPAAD
Description: To evaluate the selectivity of the compounds for S1PR2 over S1PR1 and S1PR5, asimilar assay set upas described above for theS1PR2 calcium flux assays waspeformed: CHO cells stably overexpressing human GPCR sphingosine 1-phosphate receptor 1 and Gq protein (Euroscreen, FAST-0197A) or overexpressing human GPCR sphingosine 1-phosphate receptorS5 and Gq protein were used (Perkin Elmer, ES-593-A). In case of the S1PR5 assay triggering was done with an SPR5 specific agonist instead of with S1P (Hobson et al., 2015).
(§1) 50 μL of Chinese hamster ovary (CHO) cells stably overexpressing human S1PR1 or S1PR5 are seeded in 384 well sterile microplates (7,500 cells/well or 10,000 cells/well respectively) and are incubated overnight at 37° C. under 5% CO2. Cells are subsequently washed twice with 25 μL/well of starvation medium (F-12 Ham's medium containing 0.1% fatty acid free bovine serum albumin (FAF BSA)). After one h starvation at 37° C., 5% CO2, cells are loaded with 25 μL of Fluo 8 dye diluted in Hank's balanced salt solution (HBSS) with 20 mM Hepes complemented with 5 mM of probenecid following the recommendations of the manufacturer (one h at 37° C., 5% CO2). Dilution series of compounds are prepared in HBSS buffer with 20 mM Hepes and 0.1% BSA (FAF). 10 μL of diluted compound is added to the cells using the FDSS/pCELL and intracellular calcium changes are measured immediately by recording fluorescence during 3 min (agonist readout). The ratio of maximal signal over background before compound injection is used to determine compound response.
After an incubation of 15 min at 37° C., following the agonist readout, the plates are transferred to the FDSS/pCELL reader. Cells are stimulated with 10 μL of EC80 concentration of S1P (6 nM for S1P1 and 20 nM for S1P5) and intracellular calcium changes are measured immediately by recording fluorescence during three min (antagonist readout). The ratio of maximal signal over background before S1P injection was used to determine the inhibitory effect ofthe compound.
(§2) Raw data obtained in each experiment (ratio of maximal signal over background for calcium mobilization assays) were normalized in percentage of activation (agonist mode) or inhibition (antagonist mode) using positive and negative experiment controls. Each individual plate quality was assessed by evaluation of Z′ factor calculated with raw data using the following equation
(§3) Y=bottom+(top−bottom)/(1+(10^(Log IC50−X)*Hillslope)) where X is the logarithm of the concentration of the compound

[5] = biological target: T3, S1PR2 (Homo sapiens, UniProt O95136); assay: S1PR2 binding assay (competition with radioactively labeled S1P, SpA); conditions: membranes from stable cell line over expressing S1PR2, SpA beads; read-out: S1P2 EC50 (nM), S1PR2 binding EC50
T3 construct: expressed in transfected cells
T3 sequence (O95136 whole entry): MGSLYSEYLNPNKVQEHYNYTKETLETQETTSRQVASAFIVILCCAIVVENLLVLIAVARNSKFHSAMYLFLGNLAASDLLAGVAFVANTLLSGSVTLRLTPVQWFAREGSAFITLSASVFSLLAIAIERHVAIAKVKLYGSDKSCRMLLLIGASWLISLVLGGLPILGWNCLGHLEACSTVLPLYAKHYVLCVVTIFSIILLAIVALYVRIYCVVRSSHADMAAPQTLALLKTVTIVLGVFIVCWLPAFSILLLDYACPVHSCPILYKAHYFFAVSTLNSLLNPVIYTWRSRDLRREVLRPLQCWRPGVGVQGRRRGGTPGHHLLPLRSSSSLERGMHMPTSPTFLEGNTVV
Procedure, shortened: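 Competition with [3H]S1P for membranes from a stable S1PR2-overexpressing cell line, 20 μg/well, captured on PVT-WGA SPA beads, in 20 mM Tris pH 7.5, 10 mM MgCl2, 100 mM NaCl, 0.4% fatty-acid-free BSA, 1 mM Na3VO4. 2 h at room temperature, then centrifugation and scintillation counting.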

[6] = biological target: T4, human GPCR sphingosine 1-phosphate receptor 1 (Homo sapiens, UniProt P21453); assay: S1PR1 selectivity Ca2+ flux assay (antagonist readout); assay type: cell-based; conditions: antagonist readout, CHO cells overexpressing human S1PR1 and Gq, S1P at EC80 (6 nM); read-out: S1P1 EC50 (nM), S1P1 antagonist EC50
T4 construct: host or cells: CHO
T4 sequence (P21453 whole entry): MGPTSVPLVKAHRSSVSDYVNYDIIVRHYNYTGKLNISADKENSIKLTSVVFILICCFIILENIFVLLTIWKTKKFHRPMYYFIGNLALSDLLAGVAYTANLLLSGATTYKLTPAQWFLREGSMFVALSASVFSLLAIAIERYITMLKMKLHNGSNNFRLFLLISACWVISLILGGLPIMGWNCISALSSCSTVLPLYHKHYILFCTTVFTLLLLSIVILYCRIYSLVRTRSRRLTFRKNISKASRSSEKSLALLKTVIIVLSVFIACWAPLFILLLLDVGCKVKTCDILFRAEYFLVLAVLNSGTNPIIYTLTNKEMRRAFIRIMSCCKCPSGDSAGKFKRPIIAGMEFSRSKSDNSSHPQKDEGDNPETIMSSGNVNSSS
Procedure: as §1
After an incubation of 15 min at 37° C., following the agonist readout, the plates are transferred to the FDSS/pCELL reader. […] The ratio of maximal signal over background before S1P injection was used to determine the inhibitory effect ofthe compound.
as §2, §3

T1 sequence (O95136 whole entry): as the sequence (O95136 whole entry) above

SMILES	EC50 [1]	EC50 [2]	EC50 [3]	EC50 [4]	EC50 [5]	EC50 [6]
CCOc1cc2nc(Cc3nn(CC(=O)O)c(=O)c4c(C)cccc34)[nH]c2cc1Cl [Compound 77, 2-[4-[(6-chloro-5-ethoxy-1H-benzimidazol-2-yl)methyl]-8-methyl-1-oxo-phthalazin-2-yl]acetic acid]	29.8 nM	0.00163 µM	0.0274 µM	6610 nM	241 nM	
CC(C(=O)O)n1nc(Cc2cn3cc(OCC4CC4)c(Cl)cc3n2)c2cc(F)ccc2c1=O (stereo not shown) [Compound 86, 2-[4-[[7-chloro-6-(cyclopropylmethoxy)imidazo[1,2-a]pyridin-2-yl]methyl]-6-fluoro-1-oxo-phthalazin-2-yl]propanoic acid]	6.33 nM	0.000911 µM	0.0971 µM	19800 nM	28.7 nM	
O=C(O)Cc1nn(Cc2cn3cc(OCC4CC4)c(C(F)(F)F)cc3n2)c2ccccc2c1=O [Compound 99, 2-[1-[[6-(cyclopropylmethoxy)-7-(trifluoromethyl)imidazo[1,2-a]pyridin-2-yl]methyl]-4-oxo-cinnolin-3-yl]acetic acid]	3.56 nM		0.322 µM	6610 nM	44.9 nM	
CC(C(=O)O)c1nn(Cc2cn3cc(OCC4CC4)c(C(F)(F)F)cc3n2)c2ccccc2c1=O (stereo not shown) [Compound 100, 2-[1-[[6-(cyclopropylmethoxy)-7-(trifluoromethyl)imidazo[1,2-a]pyridin-2-yl]methyl]-4-oxo-cinnolin-3-yl]propanoic acid]	3.45 nM	0.00497 µM	0.0635 µM	19800 nM	51.1 nM	
N#Cc1cc2nc(Cn3nc(C(=O)O)c(=O)c4ccccc43)[nH]c2cc1OCC1CC1 [Compound 110, 1-[[5-cyano-6-(cyclopropylmethoxy)-1H-benzimidazol-2-yl]methyl]-4-oxo-cinnoline-3-carboxylic acid]	2.17 nM	0.00237 µM	0.0152 µM	2240 nM	11.2 nM	
O=C(O)Cn1nc(Cn2cc3cc(OCC4CC4)c(Br)cc3n2)c2ccccc2c1=O [Compound 111, 2-[4-[[6-bromo-5-(cyclopropylmethoxy)indazol-2-yl]methyl]-1-oxo-phthalazin-2-yl]acetic acid]	15.2 nM	0.0422 µM	1.08 µM	10000 nM	49 nM	
CCOc1cc2cn(Cc3nn(CC(=O)O)c(=O)c4ccccc34)nc2cc1Br [Compound 137, 2-[4-[(6-bromo-5-ethoxy-indazol-2-yl)methyl]-1-oxo-phthalazin-2-yl]acetic acid]	21 nM	0.105 µM	3.18 µM		59.4 nM	≥ 19900 nM
O=C(Cn1nc(Cc2nc3cc(OC(F)(F)F)c(Cl)cc3[nH]2)c2ccccc2c1=O)N[C@H]1CCC[C@H]1O [Compound 140, 2-[4-[[6-chloro-5-(trifluoromethoxy)-1H-benzimidazol-2-yl]methyl]-1-oxo-phthalazin-2-yl]-N-[(1S,2R)-2-hydroxycyclopentyl]acetamide]	13 nM	0.115 µM	1.11 µM		29.8 nM	≥ 19900 nM
O=C(Cn1nc(Cc2nc3cc(OC(F)(F)F)c(Cl)cc3[nH]2)c2ccccc2c1=O)N1CCOCC1 [Compound 142, 4-[[6-chloro-5-(trifluoromethoxy)-1H-benzimidazol-2-yl]methyl]-2-(2-morpholino-2-oxo-ethyl)phthalazin-1-one]	30.1 nM	0.191 µM	0.953 µM		103 nM	≥ 19900 nM
O=C(Cn1nc(Cc2nc3cc(Cl)c(OC(F)(F)F)cc3[nH]2)c2c(c1=O)CCCC2)N1CCOCC1 [Compound 145, 4-[[5-chloro-6-(trifluoromethoxy)-1H-benzimidazol-2-yl]methyl]-2-(2-morpholino-2-oxo-ethyl)-5,6,7,8-tetrahydrophthalazin-1-one]	42.6 nM	0.0893 µM	0.331 µM		80.2 nM	≥ 19900 nM
O=C(Cn1nc(Cn2cc3cc(OCC4CC4)c(Cl)cc3n2)c2ccccc2c1=O)N1CCOCC1 [Compound 148, 4-[[6-chloro-5-(cyclopropylmethoxy)indazol-2-yl]methyl]-2-(2-morpholino-2-oxo-ethyl)phthalazin-1-one]	41.5 nM	0.0689 µM	0.785 µM		32.1 nM	≥ 19900 nM
O=C(Cn1nc(Cc2nc3cc(Cl)c(OCC4CC4)cc3[nH]2)c2ccccc2c1=O)NC1CCCC1 [Compound 150, 2-[4-[[5-chloro-6-(cyclopropylmethoxy)-1H-benzimidazol-2-yl]methyl]-1-oxo-phthalazin-2-yl]-N-cyclopentyl-acetamide]	13.7 nM	0.00614 µM	0.0414 µM	19800 nM	15.6 nM	
CCOc1cc2cn(Cc3nn(CC(=O)O)c(=O)c4ccccc34)nc2cc1Cl [Compound 251, 2-[4-[(6-chloro-5-ethoxy-indazol-2-yl)methyl]-1-oxo-phthalazin-2-yl]acetic acid]	179 nM	0.111 µM	3.46 µM		113 nM	≥ 19900 nM
O=C(O)Cn1nc(Cn2cc3cc(OCC(F)(F)F)c(Cl)cc3n2)c2ccccc2c1=O [Compound 252, 2-[4-[[6-chloro-5-(2,2,2-trifluoroethoxy)indazol-2-yl]methyl]-1-oxo-phthalazin-2-yl]acetic acid]	62.6 nM	0.145 µM	16.5 µM		239 nM	≥ 19900 nM
O=C(O)Cn1nc(Cn2cc3cc(OCC(F)F)c(Cl)cc3n2)c2ccccc2c1=O [Compound 253, 2-[4-[[6-chloro-5-(2,2-difluoroethoxy)indazol-2-yl)methyl]-1-oxo-phthalazin-2-yl]acetic acid]	184 nM	0.29 µM	4.13 µM		182 nM	≥ 19900 nM
O=C(O)Cn1nc(Cc2nc3nc(OCC4CC4)c(Cl)cc3[nH]2)c2ccccc2c1=O [Compound 257, 2-[4-[[6-chloro-5-(cyclopropylmethoxy)-1H-imidazo[4,5-b]pyridin-2-yl]methyl]-1-oxo-phthalazin-2-yl]acetic acid]	24.3 nM	0.0539 µM	0.216 µM	19800 nM	231 nM	
CC(C(=O)O)n1nc(Cn2cc3cc(OCC4CC4)c(Cl)cc3n2)c2ccccc2c1=O (stereo not shown) [compound 3, 2-[4-[[6-chloro-5-(cyclopropyl-methoxy)indazol-2-yl]methyl]-1-oxo-phthalazin-2-yl]propanoic acid]		0.00399 µM	0.217 µM	19800 nM		
